Laboratory results reported in PubChem BioAssay AID1552 (Sanford-Burnham Center for Chemical Genomics, 2009).
Active and inactive are the calls of the source. No rule for the calls is given here.

Each compound was assayed against Ubiquitin-conjugating enzyme E2 N (Homo sapiens) (UniProt P61088) (assay: NMR detection of UBE2N ligand binding – biophysical, purified protein (AID 1552)). Settings: NMR binding to purified UBE2N.
Chain of Ubiquitin-conjugating enzyme E2 N (Homo sapiens) (P61088 whole entry, looked up): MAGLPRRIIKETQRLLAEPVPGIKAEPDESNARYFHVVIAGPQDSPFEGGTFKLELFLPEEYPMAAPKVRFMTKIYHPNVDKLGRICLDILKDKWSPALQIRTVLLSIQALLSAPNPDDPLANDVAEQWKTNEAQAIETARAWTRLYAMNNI

Q: `O=C1C=CC(=O)N1c1ccccc1O` was tested. Which Kd did it give?
A: The Kd was > 4 mM (inactive).

Q: `Cc1ccc(-n2[nH]c(C)cc2=O)cc1` was tested. Which Kd did it give?
A: Its Kd is > 4 mM (inactive).

Q: For `CC(=O)c1ccc[nH]1`, which Kd is on record?
A: The Kd was > 4 mM (inactive).

Q: `O=C1CCCN1C(=O)CN1CCOCC1` was tested. Which Kd did it give?
A: The Kd was > 4 mM (inactive).

Q: For `O=C(CSc1ncnc2ccccc12)NCCCO`, which Kd is on record?
A: The Kd was > 4 mM (inactive).

Q: How did the Kd turn out when `Cc1nc2nc(Cc3ccccc3)[nH]n2c(=O)c1Cl` was run?
A: The Kd was > 4 mM (inactive).

Q: Which Kd does the source give for `O=C1OC(N2CCOCC2)c2ccccc21` (stereo not drawn) here?
A: The Kd was > 4 mM (inactive).

Q: How did the Kd turn out when `Nc1nnc(SCc2ccccc2Cl)s1` was run?
A: Its Kd is > 4 mM (inactive).

Q: How did the Kd turn out when `O=C(O)c1ccc2ncccc2c1` was run?
A: The Kd was > 4 mM (inactive).

Q: Which Kd does the source give for `O=C(Nc1ccccc1Cl)c1cnccn1` here?
A: The Kd was > 4 mM (inactive).

Q: `NCc1oc(-c2ccccc2)cc1C(=O)O` was tested. Which Kd did it give?
A: The Kd was > 4 mM (inactive).

Q: Which Kd does the source give for `NC(=O)c1ccc(NC(=O)C2CC2)cc1` here?
A: The Kd was > 4 mM (inactive).

Q: For `CCCCC(Nc1n[nH]c(=O)[nH]c1=O)C(=O)O` (stereo not drawn), which Kd is on record?
A: Its Kd is > 4 mM (inactive).

Q: With `CCNCC(O)c1ccc([N+](=O)[O-])cc1` (stereo not drawn) as the compound, how does the Kd read?
A: Its Kd is > 4 mM (inactive).

Q: For `Cn1ncc2c(=O)n(CC(=O)c3ccccc3)cnc21`, which Kd is on record?
A: The Kd was > 4 mM (inactive).

Q: For `C=CCc1ccc2c(c1)OCO2`, which Kd is on record?
A: Its Kd is > 4 mM (inactive).

Q: How did the Kd turn out when `C[C@@H]1O[C@@H](O[C@H]2[C@H](Oc3cc(O)c4c(=O)cc(-c5ccc(O)cc5)oc4c3)O[C@H](CO)[C@@H](O)[C@@H]2O)[C@H](O)[C@H](O)[C@H]1O` was run?
A: Its Kd is > 4 mM (inactive).

Q: How did the Kd turn out when `CN1CCC(NC(=O)C2CCCO2)CC1` (stereo not drawn) was run?
A: Its Kd is > 4 mM (inactive).

Q: Which Kd does the source give for `CC1(C)O[C@H]2CC(=O)OC[C@]23[C@H]2CC[C@@]4(C)[C@H](c5ccoc5)OC(=O)[C@H]5O[C@]54[C@]2(C)C(=O)C[C@@H]13` here?
A: Its Kd is > 4 mM (inactive).

Q: For `O=P(c1ccccc1)(c1ccccc1)C1CCOCC1`, which Kd is on record?
A: Its Kd is > 4 mM (inactive).

Q: Which Kd does the source give for `O=C(/C=C1\SC(=O)NC1=O)NCc1ccccc1` here?
A: Its Kd is > 4 mM (inactive).

Q: With `CC1(C)Cc2cccc(C(=O)O)c2O1` as the compound, how does the Kd read?
A: Its Kd is > 4 mM (inactive).

Q: `O=C(O)c1ccc2nccnc2c1` was tested. Which Kd did it give?
A: Its Kd is > 4 mM (inactive).

Q: With `O=c1c(-c2ccc(O)cc2)coc2cc(O)ccc12` as the compound, how does the Kd read?
A: The Kd was > 4 mM (inactive).

Q: For `c1ccc(CCc2nc(-c3ccncc3)no2)cc1`, which Kd is on record?
A: Its Kd is > 4 mM (inactive).

Q: Which Kd does the source give for `Cc1nc2sc3c(c2c(=N)n1N)CC(C)(C)OC3` here?
A: The Kd was > 4 mM (inactive).

Q: How did the Kd turn out when `O=C(NCCCO)c1ccncc1` was run?
A: The Kd was > 4 mM (inactive).

Q: For `CCCNC(=O)CSc1nnc(C)s1`, which Kd is on record?
A: The Kd was > 4 mM (inactive).

Q: How did the Kd turn out when `CC(C)NC(=S)N1CCN(S(C)(=O)=O)CC1` was run?
A: The Kd was > 4 mM (inactive).

Q: How did the Kd turn out when `CCC[C@H]1CC2=C(C[C@@H](CC)CC3=C1C(=O)OC3=O)C(=O)OC2=O` was run?
A: Its Kd is > 4 mM (inactive).

Q: How did the Kd turn out when `C=C1CCC(C2CC(=O)OC2=O)C(=O)CCC2C1CC2(C)C` (stereo not drawn) was run?
A: Its Kd is > 4 mM (inactive).

Q: How did the Kd turn out when `C=CC(C1=CC(=O)C=CC1=O)c1ccccc1` (stereo not drawn) was run?
A: The Kd was > 4 mM (inactive).

Q: `Cc1occc1C(=O)Nc1nccs1` was tested. Which Kd did it give?
A: The Kd was > 4 mM (inactive).

Q: With `CCc1cc(=O)[nH]c(SCC(=O)NCCOC)n1` as the compound, how does the Kd read?
A: The Kd was > 4 mM (inactive).

Q: Which Kd does the source give for `O=c1cc(CO)oc(CN2CCCCC2)c1O` here?
A: Its Kd is > 4 mM (inactive).

Q: Which Kd does the source give for `Cn1[nH]c2nc3[nH]n(C)c(=O)c3c(-c3ccccc3)c2c1=O` here?
A: The Kd was > 4 mM (inactive).

Q: With `CCn1cnc2cc([N+](=O)[O-])ccc2c1=O` as the compound, how does the Kd read?
A: The Kd was > 4 mM (inactive).

Q: How did the Kd turn out when `Cc1[nH]n(-c2ccccc2)c(=O)c1[N+](=O)[O-]` was run?
A: The Kd was > 4 mM (inactive).

Q: Which Kd does the source give for `c1ccc2c(c1)ncn2CCn1cnc2ccccc21` here?
A: The Kd was > 4 mM (inactive).

Q: With `COc1ccc(NC(=O)c2ccc[n+]([O-])c2)cc1` as the compound, how does the Kd read?
A: Its Kd is > 4 mM (inactive).

Q: For `OCC1CNc2ccccc2O1` (stereo not drawn), which Kd is on record?
A: The Kd was > 4 mM (inactive).

Q: How did the Kd turn out when `Cc1occc1C(=O)Nc1ccc2c(c1)OCO2` was run?
A: Its Kd is > 4 mM (inactive).

Q: `CCC(C)OC1CCS(=O)(=O)C1` (stereo not drawn) was tested. Which Kd did it give?
A: The Kd was > 4 mM (inactive).

Q: Which Kd does the source give for `Nc1cc(-c2ccco2)[nH]n1` here?
A: The Kd was > 4 mM (inactive).

Q: How did the Kd turn out when `CNC(=O)c1cc(C)c(-c2ccccc2)s1` was run?
A: Its Kd is > 4 mM (inactive).

Q: How did the Kd turn out when `O=C(O)c1ccc(N2CCOCC2)cc1` was run?
A: Its Kd is > 4 mM (inactive).

Q: Which Kd does the source give for `Nn1cnn2c(SCc3ccccc3)nnc12` here?
A: Its Kd is > 4 mM (inactive).

Q: `S=c1[nH]cnc2sccc12` was tested. Which Kd did it give?
A: The Kd was > 4 mM (inactive).
